Measurements taken from patent US20210238176A1, “PESTICIDALLY-ACTIVE BICYCLIC HETEROAROMATIC COMPOUNDS” (SYNGENTA CROP PROTECTION AG, priority 2018, published 2021).

Columns and labels:
Type in all cases: in vivo
[1] = tested on: Bemisia tabaci (Cotton White Fly); test: Bemisia tabaci (cotton white fly) feeding/contact activity, cotton leaf discs; settings: foliar, 144 h, application rate 200 ppm, adult white flies, 6 days after incubation
Experimental: Bemisia tabaci (Cotton White Fly): Feeding/Contact Activity
Cotton leaf discs were placed on agar in 24-well microtiter plates and sprayed with aqueous test solutions prepared from 10,000 ppm DMSO stock solutions. After drying the leaf discs were infested with adult white flies. The samples were checked for mortality 6 days after incubation.

[2] = tested on: Myzus persicae (Green Peach Aphid); test: Myzus persicae (green peach aphid) feeding/contact activity, sunflower leaf discs; settings: foliar, 144 h, application rate 200 ppm, aphid population of mixed ages, 6 days after infestation
Experimental: Myzus persicae (Green Peach Aphid): Feeding/Contact Activity
Sunflower leaf discs were placed onto agar in a 24-well microtiter plate and sprayed with aqueous test solutions prepared from 10,000 ppm DMSO stock solutions. After drying, the leaf discs were infested with an aphid population of mixed ages. The samples were assessed for mortality 6 days after infestation.

[3] = tested on: Myzus persicae (Green Peach Aphid); test: Myzus persicae systemic activity, pea seedling roots in test solution; settings: 144 h, test rate 24 ppm, systemic via pea seedling roots, 6 days
Experimental: Myzus persicae (Green Peach Aphid). Systemic Activity
Roots of pea seedlings infested with an aphid population of mixed ages were placed directly into aqueous test solutions prepared from 10,000 ppm DMSO stock solutions. The samples were assessed for mortality 6 days after placing seedlings into test solutions.

[4] = tested on: Myzus persicae (Green Peach Aphid); test: Myzus persicae intrinsic activity, sucrose solution under Parafilm; settings: 120 h, test rate 12 ppm, 5 days after infestation
Text: Myzus persicae (Green Peach Aphid). Intrinsic Activity
Test compounds prepared from 10,000 ppm DMSO stock solutions were applied by pipette into 24-well microtiter plates and mixed with sucrose solution. The plates were closed with a stretched Parafilm. A plastic stencil with 24 holes was placed onto the plate and infested pea seedlings were placed directly on the Parafilm. The infested plate was closed with a gel blotting paper and another plastic stencil and then turned upside down. The samples were assessed for mortality 5 days after infestation.

[5] = tested on: Nilaparvata lugens (Brown Plant Hopper, metabolic neonicotinoid-resistant); test: Nilaparvata lugens (metabolic neonicotinoid-resistant) larvicide, feeding/contact, rice plants; settings: 168 h, N3 nymphs, neonicotinoid-resistant strain, 7 days after treatment, read-out: control (mortality and growth regulation)
Experimental: Nilaparvata lugens (Brown Plant Hopper—Metabolic Neonicotinoid-Resistant), Larvicide, Feeding/Contact
Rice plants were treated with the diluted test solutions in a spray chamber. After drying, the plants were infested with ˜20 N3 nymphs. 7 days after the treatment, samples were assessed for mortality and growth regulation.

O=c1nc2n(Cc3ccc(Cl)nc3)cccc-2n1-c1cnn(CC(F)(F)F)c1 [Compound A85, 4-[(6-chloro-3-pyridyl)methyl]-1-[1-(2,2,2-trifluoroethyl)pyrazol-4-yl]imidazo[4,5-b]pyridin-2-one]
≥ 80%: mortality at 200 ppm [1] | mortality at 200 ppm [2] | mortality at 24 ppm [3] | mortality at 12 ppm [4]

Cc1nn(C(C)C)cc1-n1c2cccn(Cc3ccc(Cl)nc3)c-2nc1=O [Compound A102, 4-[(6-chloro-3-pyridyl)methyl]-1-(1-isopropyl-3-methyl-pyrazol-4-yl)imidazo[4,5-b]pyridin-2-one]
≥ 80%: mortality at 200 ppm [1] | mortality at 200 ppm [2] | mortality at 24 ppm [3] | mortality at 12 ppm [4]

O=c1nc2n(Cc3ccc(Cl)nc3)cccc-2n1-c1ccc(F)cc1 [Compound A32, 4-[(6-chloro-3-pyridyl)methyl]-1-(4-fluorophenyl)imidazo[4,5-b]pyridin-2-one]
≥ 80%: mortality at 200 ppm [2] | mortality at 24 ppm [3] | mortality at 12 ppm [4]

Cn1cc(-n2c3cccn(Cc4ccc(Cl)nc4)c-3nc2=O)c(C(F)F)n1 [Compound A95, 4-[(6-chloro-3-pyridyl)methyl]-1-[3-(difluoromethyl)-1-methyl-pyrazol-4-yl]imidazo[4,5-b]pyridin-2-one]
≥ 80%: mortality at 200 ppm [2] | mortality at 24 ppm [3] | mortality at 12 ppm [4]

CC(C)n1nccc1-n1c2cccn(Cc3ccc(Cl)nc3)c-2nc1=O [Compound A94, 4-[(6-chloro-3-pyridyl)methyl]-1-(2-isopropylpyrazol-3-yl)imidazo[4,5-b]pyridin-2-one]
≥ 80%: mortality at 200 ppm [1] | mortality at 200 ppm [2] | mortality at 24 ppm [3] | mortality at 12 ppm [4]

Cn1cc(-n2c3cccn(Cc4ccc(Cl)nc4)c-3nc2=O)c(C(F)(F)F)n1 [Compound A96, 4-[(6-chloro-3-pyridyl)methyl]-1-[1-methyl-3-(trifluoromethyl)pyrazol-4-yl]imidazo[4,5-b]pyridin-2-one]
≥ 80%: mortality at 200 ppm [1] | mortality at 200 ppm [2] | mortality at 24 ppm [3] | mortality at 12 ppm [4]

Cn1nc(C(F)(F)F)cc1-n1c2cccn(Cc3ccc(Cl)nc3)c-2nc1=O [Compound A88, 4-[(6-chloro-3-pyridyl)methyl]-1-[2-methyl-5-(trifluoromethyl)pyrazol-3-yl]imidazo[4,5-b]pyridin-2-one]
≥ 80%: mortality at 200 ppm [1] | mortality at 200 ppm [2] | mortality at 24 ppm [3] | mortality at 12 ppm [4]

CCc1nn(C)cc1-n1c2cccn(Cc3ccc(Cl)nc3)c-2nc1=O [Compound A100, 4-[(6-chloro-3-pyridyl)methyl]-1-(3-ethyl-1-methyl-pyrazol-4-yl)imidazo[4,5-b]pyridin-2-one]
≥ 80%: mortality at 200 ppm [1] | mortality at 200 ppm [2] | mortality at 24 ppm [3] | mortality at 12 ppm [4]

N#Cc1ccccc1-n1c2cccn(Cc3ccc(Cl)nc3)c-2nc1=O [Compound A40, 2-[4-[(6-chloro-3-pyridyl)methyl]-2-oxo-imidazo[4,5-b]pyridin-1-yl]benzonitrile]
≥ 80%: mortality at 200 ppm [2] | mortality at 24 ppm [3] | mortality at 12 ppm [4]

CCn1cc(-n2c3cccn(Cc4ccc(Cl)nc4)c-3nc2=O)c(C)n1 [Compound A101, 4-[(6-chloro-3-pyridyl)methyl]-1-(1-ethyl-3-methyl-pyrazol-4-yl)imidazo[4,5-b]pyridin-2-one]
≥ 80%: mortality at 200 ppm [1] | mortality at 200 ppm [2] | mortality at 12 ppm [4]

Cc1nn(C(F)F)cc1-n1c2cccn(Cc3ccc(Cl)nc3)c-2nc1=O [Compound A98, 4-[(6-chloro-3-pyridyl)methyl]-1-[1-(difluoromethyl)-3-methyl-pyrazol-4-yl]imidazo[4,5-b]pyridin-2-one]
≥ 80%: mortality at 200 ppm [2] | mortality at 24 ppm [3] | mortality at 12 ppm [4]

O=c1nc2n(Cc3ccc(Cl)nc3)cccc-2n1-c1cccnc1 [Compound A33, 4-[(6-chloro-3-pyridyl)methyl]-1-(3-pyridyl)imidazo[4,5-b]pyridin-2-one]
≥ 80%: mortality at 200 ppm [2] | mortality at 24 ppm [3] | mortality at 12 ppm [4] | mortality at 200 ppm [5]

O=c1nc2n(Cc3ccc(Cl)nc3)cccc-2n1-c1cncs1 [Compound A66, 4-[(6-chloro-3-pyridyl)methyl]-1-thiazol-5-yl-imidazo[4,5-b]pyridin-2-one]
≥ 80%: mortality at 200 ppm [1] | mortality at 200 ppm [2] | mortality at 12 ppm [4]

COc1ccccc1-n1c2cccn(Cc3ccc(Cl)nc3)c-2nc1=O [Compound A82, 4-[(6-chloro-3-pyridyl)methyl]-1-(2-methoxyphenyl)imidazo[4,5-b]pyridin-2-one]
≥ 80%: mortality at 200 ppm [2] | mortality at 24 ppm [3] | mortality at 12 ppm [4]

CC(C)n1cc(-n2c3cccn(Cc4ccc(Cl)nc4)c-3nc2=O)cn1 [Compound A62, 4-[(6-chloro-3-pyridyl)methyl]-1-(1-isopropylpyrazol-4-yl)imidazo[4,5-b]pyridin-2-one]
≥ 80%: mortality at 200 ppm [1] | mortality at 200 ppm [2] | mortality at 12 ppm [4]

O=c1nc2n(Cc3ccc(Cl)nc3)cccc-2n1-c1cncc(C(F)(F)F)c1 [Compound A25, 4-[(6-chloro-3-pyridyl)methyl]-1-[5-(trifluoromethyl)-3-pyridyl]imidazo[4,5-b]pyridin-2-one]
≥ 80%: mortality at 200 ppm [2] | mortality at 24 ppm [3] | mortality at 12 ppm [4]

O=c1nc2n(Cc3ccc(Cl)nc3)cccc-2n1-c1ccc(OC(F)(F)F)cc1 [Compound A39, 4-[(6-chloro-3-pyridyl)methyl]-1-[4-(trifluoromethoxy)phenyl]imidazo[4,5-b]pyridin-2-one]
≥ 80%: mortality at 200 ppm [1] | mortality at 200 ppm [2] | mortality at 12 ppm [4]

CCCn1cc(-n2c3cccn(Cc4ccc(Cl)nc4)c-3nc2=O)cn1 [Compound A83, 4-[(6-chloro-3-pyridyl)methyl]-1-(1-propylpyrazol-4-yl)imidazo[4,5-b]pyridin-2-one]
≥ 80%: mortality at 200 ppm [1] | mortality at 200 ppm [2] | mortality at 24 ppm [3] | mortality at 12 ppm [4]

Cn1ncc(-n2c3cccn(Cc4ccc(Cl)nc4)c-3nc2=O)c1C(F)F [Compound A97, 4-[(6-chloro-3-pyridyl)methyl]-1-[5-(difluoromethyl)-1-methyl-pyrazol-4-yl]imidazo[4,5-b]pyridin-2-one]
≥ 80%: mortality at 200 ppm [2] | mortality at 24 ppm [3] | mortality at 12 ppm [4]

O=c1nc2n(Cc3ccc(Cl)nc3)cccc-2n1-c1ccoc1 [Compound A70, 4-[(6-chloro-3-pyridyl)methyl]-1-(3-furyl)imidazo[4,5-b]pyridin-2-one]
≥ 80%: mortality at 200 ppm [1] | mortality at 12 ppm [4]

O=c1nc2n(Cc3ccc(Cl)nc3)cccc-2n1-c1ccc(C(F)(F)F)cc1 [Compound A13, 4-[(6-chloro-3-pyridyl)methyl]-1-[4-(trifluoromethyl)phenyl]imidazo[4,5-b]pyridin-2-one]
≥ 80%: mortality at 200 ppm [1] | mortality at 200 ppm [2] | mortality at 12 ppm [4]

Cc1c(-n2c3cccn(Cc4ccc(Cl)nc4)c-3nc2=O)cnn1C(F)F [Compound A99, 4-[(6-chloro-3-pyridyl)methyl]-1-[1-(difluoromethyl)-5-methyl-pyrazol-4-yl]imidazo[4,5-b]pyridin-2-one]
≥ 80%: mortality at 200 ppm [2] | mortality at 24 ppm [3] | mortality at 12 ppm [4]

O=c1nc2n(Cc3ccc(Cl)nc3)cccc-2n1-c1cccc(F)c1 [Compound A31, 4-[(6-chloro-3-pyridyl)methyl]-1-(3-fluorophenyl)imidazo[4,5-b]pyridin-2-one]
≥ 80%: mortality at 24 ppm [3] | mortality at 12 ppm [4] | mortality at 200 ppm [5]
